Experimental data reported in paper PMC9068772, “Discovery of first-in-class nanomolar inhibitors of heptosyltransferase I reveals a new aminoglycoside target and potential alternative mechanism of action” (Scientific Reports, 2022).
“And” between values parts separate entries of the source, which are not always exact repeats. Equal entries are not always repeated.

How the values were obtained:
[1] = target: T1, Heptosyltransferase I (HepI) WT (Escherichia coli, UniProt P24173); experiment: HepI inhibition, ADP/NADH coupled assay (wild type); type: biochemical, E. coli K12; details: for kcat: HepI WT in presence of inhibitor; for Ki: 10 μM ODLA, inhibitor varied
T1 construct: made in house; host or cells: E. coli One Shot BL-21-AI
T1 sequence (P24173 whole entry): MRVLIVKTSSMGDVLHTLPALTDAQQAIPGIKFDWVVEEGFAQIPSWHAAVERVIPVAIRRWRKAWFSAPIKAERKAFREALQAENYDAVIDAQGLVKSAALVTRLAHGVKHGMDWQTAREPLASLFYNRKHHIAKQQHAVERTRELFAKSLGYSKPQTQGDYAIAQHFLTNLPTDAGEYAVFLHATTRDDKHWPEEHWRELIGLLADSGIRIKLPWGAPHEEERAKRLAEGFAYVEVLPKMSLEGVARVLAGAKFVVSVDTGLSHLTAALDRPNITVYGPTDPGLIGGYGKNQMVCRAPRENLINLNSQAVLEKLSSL
Method: As previously reported[11],[14],[15], an ADP/NADH coupled assay was used to monitor HepI activity by monitoring the absorbance change at 340 nm at 37 °C on a Cary Bio 100 UV–Vis Spectrometer. Under normal conditions, the assay buffer was composed of 50 mM HEPES, 50 mM KCl, 10 mM MgCl2, pH 7.5. The coupled enzyme reaction additionally contained 100 μM phosphoenolpyruvate, 100 μM NADH, 100 μM dithiothreitol (DTT) and 0.05 U/μL of both pyruvate kinase and lactate dehydrogenase. 100 μM ADPH was used when ODLA concentration was varied and 100 μM ODLA was used when ADPH was varied. Once a stable baseline was established (~ 5 min), the reaction was initiated by addition of HepI to a final concentration of 50 nM or 100 nM (for high and lower substrate concentrations respectively) and all reported reaction rates are after background subtraction. When running 12 samples at once, plastic cuvette stirs and a repeat pipettor was used to inject 200 μL enzyme. Inhibition of HepI was monitored using the same ADP/NADH coupled assay, all conditions of the assay were the same as previously described unless otherwise stated. Ki values for each of the compounds were determined by varying compound final concentration from 100 μm to 10 nm, and a final concentration of 10 μM ODLA. Competition assays against ADPH were done with excess ODLA (100 μM) and varying ADPH from 2–0.25 μM. Competition assays against ODLA were done with excess ADPH (100 μM) and varying ODLA from 2–0.25 μM. Reactions were started with addition of enzyme and inhibitor was varied from 30–0.01 μM. Kinetics were fit to Lineweaver-Burke (Eq. 1), competitive (Eq. 2), non-competitive (Eq. 3), mixed (Eq. 4), Dixon (Eq. 5), or Cornish-Bowden (Eq. 6) models. All fitting and plotting was done through MATLAB R2018A.1 1/V1/[S]=KM/Vmax[S]+1/Vmax 2 V[S]=Vmax[S]/KM1+[I]/Ki+[S] 3 V[S]=Vmax[S]/1+([I]/Ki)/KM+[S] 4 V[S]=Vmax[S]/KM(1+[I]/Ki)+[S](1+[I]/αKi) 5 1/V[I]=KM1+I/Ki+[S]1+I/αKi/Vmax[S] 6 [S]/V[I]=KM1+I/Ki+[S]1+I/αKi/Vmax

HepI = target: T2, HepI (Escherichia coli, UniProt P24173); experiment: Circular dichroism thermal melt of HepI; type: binding, E. coli K12; details: CD melt, HepI plus ligand alone
T2 construct: made in house; host or cells: E. coli One Shot BL-21-AI
T2 sequence (P24173 whole entry): as above
Method: Circular dichroism melt experiments were performed in a Jasco J-810 spectropolarimeter in Starna 21-Q-2 cells (minimum volume 400 µL) sealed with Teflon tape to prevent evaporation. Parameters include 3 accumulations of data collected between 195–275 nm as a function of temperature (10–95 °C with 5° increments) at a ramp rate of 2°/min and a scanning rate of 50 nm/min. Samples were prepared by diluting a mixture of 5 μM HepI and some combination of 250 μM substrate/product and/or 100 μM inhibitor in a buffer of 10 mM Tris–HCl and 100 mM KCl (pH = 7.5). CD data was analyzed via in house script written in MATLAB R2018A that average a set of triplicate data, normalizes to a percent unfolded (assuming the protein is fully folded at 5 °C) at 222 nm as a function of temperature and fits to a sigmoid curve to determine the melt temperature (TM).

Structure (SMILES) | kcat [1] | Ki ([1]; HepI WT) | Extent of unfolding of HepI with ligand (HepI) | Melting temperature (Tm) of HepI with ligand (HepI) | Type of inhibition with ODLA ([1]; HepI WT, excess ADPH, ODLA varied, Lineweaver–Burk, Dixon, Cornish-Bowden)
NCC[C@H](O)C(=O)N[C@@H]1C[C@H](N)[C@@H](O[C@H]2O[C@H](CN)[C@@H](O)[C@H](O)[C@H]2O)[C@H](O)[C@H]1O[C@H]1O[C@H](CO)[C@@H](O)[C@H](N)[C@H]1O [Amikacin] | 0.138 ± 0.001 s⁻¹ | 4.3 µM and 4.26 µM |  |  | 
Nc1ncnc2c1ncn2[C@@H]1O[C@H](COP(=O)(O)OP(=O)(O)O[C@@H]2O[C@H]([C@@H](O)CO)[C@@H](O)[C@H](O)[C@@H]2O)[C@@H](O)[C@H]1O [ADPH, ADP-L-glycero-β-D-manno-heptose] |  |  | ~ 100% | does not induce any changes in the melting temperature | 
NC[C@H]1O[C@H](O[C@H]2[C@H](O)[C@@H](O[C@H]3O[C@H](CO)[C@@H](O)[C@H](N)[C@H]3O)[C@H](N)C[C@@H]2N)[C@H](N)[C@@H](O)[C@@H]1O [Kanamycin B] | 0.149 ± 0.007 s⁻¹ | 0.99 ± 0.119 µM |  |  | Competitive
Nc1ncnc2c1ncn2[C@@H]1O[C@H](COP(=O)(O)OP(=O)(O)O)[C@@H](O)[C@H]1O [ADP, Adenosine disphosphate] |  |  |  | melts similarly to HepI with ADPH | 
